The target of data set [1] is T1, recombinant BoNT/A LC (Clostridium botulinum, UniProt P0DPI0). As to conditions: cited from earlier work.
Data set [2] relates to P. falciparum African D6 clone. In words: microbe, parasite or virus in culture. The format is cell-based, Plasmodium falciparum. As to conditions: for IC50: Plasmodium falciparum, D6, read-out: antimalarial activity IC50, CQS D6.
The subject of data set [3] is P. falciparum Indochina W2 clone. In words: microbe, parasite or virus in culture. The data set is classed as cell-based, Plasmodium falciparum.
Data set [4] relates to P. falciparum multidrug resistant C235 strain (Thailand). In words: microbe, parasite or virus in culture. The data set is classed as cell-based, Plasmodium falciparum.
The target in data set [5] is T1, recombinant BoNT/A LC. Kind of data set: biochemical. Conditions: read-out: BoNT/A LC inhibition.
Data set [6] is described as follows: in vitro. As to conditions: human, microsomes, pH 7.4.
A short description of data set [7]: in vitro. Conditions: mouse, microsomes, pH 7.4.

T1 sequence (P0DPI0 2-448 limits assumed): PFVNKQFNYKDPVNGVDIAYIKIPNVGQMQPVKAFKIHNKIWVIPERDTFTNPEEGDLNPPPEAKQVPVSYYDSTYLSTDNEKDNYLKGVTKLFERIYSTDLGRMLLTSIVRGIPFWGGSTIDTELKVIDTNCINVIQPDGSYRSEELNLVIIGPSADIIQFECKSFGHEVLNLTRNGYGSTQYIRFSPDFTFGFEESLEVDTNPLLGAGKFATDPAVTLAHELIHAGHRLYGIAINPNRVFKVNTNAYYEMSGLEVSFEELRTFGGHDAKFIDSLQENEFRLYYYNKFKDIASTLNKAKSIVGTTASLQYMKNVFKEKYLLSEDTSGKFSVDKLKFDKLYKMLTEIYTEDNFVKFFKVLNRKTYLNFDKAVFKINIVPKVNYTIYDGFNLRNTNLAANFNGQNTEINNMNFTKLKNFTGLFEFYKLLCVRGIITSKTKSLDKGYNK

With `CCN(CC)Cc1cc(Nc2ccnc3cc(Cl)ccc23)ccc1O` [Amodiaquine], the “BoNT/A LC inhibition (in words)” value in data set [1] is “poor inhibitors”.

In the case of `CCN(CC)CCCC(C)Nc1ccnc2cc(Cl)ccc12.O=P(O)(O)O.O=P(O)(O)O` (centres unmarked) [CQ, chloroquine, reference compound], the “BoNT/A LC inhibition (in words)” value in data set [1] is “poor BoNT/A LC inhibitors”. For the same molecule, the IC50 was 14.2 nM in data set [2]; 634 nM in data set [3] (Plasmodium falciparum, W2, read-out: antimalarial activity IC50, CQR W2); 226 nM in data set [4] (Plasmodium falciparum, read-out: antimalarial activity IC50, MDR TM91C235).

Turning to `CCN(CC)CCCC(C)Nc1c2ccc(Cl)cc2nc2ccc(OC)cc12` (centres unmarked) [Quinacrine], the “BoNT/A LC inhibition (in words)” value in data set [1] was “poor inhibitors”.

For the molecule `C=C[C@H]1C[N@@]2CC[C@H]1C[C@@H]2[C@@H](O)c1ccnc2ccc(OC)cc12` [Quinidine], the “BoNT/A LC inhibition (in words)” value in data set [1] was “poor inhibitors”.

For `C=C[C@H]1C[N@@]2CC[C@H]1C[C@H]2[C@H](O)c1ccnc2ccc(OC)cc12` [Quinine], the “BoNT/A LC inhibition (in words)” value in data set [1] is on record as “poor inhibitors”.

Turning to `NCCNc1ccnc2cc(Cl)ccc12` [compound 4, N1-(7-chloroquinolin-4-yl)ethane-1,2-diamine], the “BoNT/A LC inhibition (in words), tested as fragments” value in data set [1] is listed as “poor BoNT/A LC inhibitors”.

Regarding `NCCCNc1ccnc2cc(Cl)ccc12` [compound 5, N1-(7-chloroquinolin-4-yl)propane-1,3-diamine], the “BoNT/A LC inhibition (in words), tested as fragments” value in data set [1] is listed as “poor BoNT/A LC inhibitors”.

In the case of `Clc1ccc2c(NCCNCc3ccccc3)ccnc2c1` [compound 6, N-Benzyl-N'-(7-chloroquinolin-4-yl)ethane-1,2-diamine], the inhibition at 20 µM in data set [5] is above 50%. Moreover, the IC50 in data set [2] was below 9 nM. Further, in data set [3] (Plasmodium falciparum, W2, read-out: antimalarial activity IC90, CQR W2), the IC90 worked out at 14.1 nM.

Consider `Clc1ccc2c(NCCCNCc3ccccc3)ccnc2c1` [compound 7, N-Benzyl-N'-(7-chloroquinolin-4-yl)propane-1,3-diamine], for which the inhibition at 20 µM in data set [5] is above 50%. Also, the “selectivity index (IC50), SI = ICtox/ICP.f. activity, D6” value in data set [2] is 56/169/73. Also, the half-life in data set [6] and in data set [7] was at least 1 h each time. Moreover, in data set [3], the “selectivity index (IC50), SI = ICtox/ICP.f. activity, W2” value is on record as 56/169/73. Moreover, in data set [4], the “selectivity index (IC50), SI = ICtox/ICP.f. activity, TM91C235” value is reported as 56/169/73.

Turning to `CC(C)(C)c1ccc(CNCCNc2ccnc3cc(Cl)ccc23)cc1` [compound 8, N-(4-Tert-butylbenzyl)-N'-(7-chloroquinolin-4-yl)ethane-1,2-diamine], the “selectivity index (IC50), SI = ICtox/ICP.f. activity, D6” value in data set [2] is recorded as 245/429/419. Besides, the “selectivity index (IC50), SI = ICtox/ICP.f. activity, W2” value in data set [3] was 245/429/419. Further, the “selectivity index (IC50), SI = ICtox/ICP.f. activity, TM91C235” value in data set [4] is 245/429/419.

`CC(C)(C)c1ccc(CNCCCNc2ccnc3cc(Cl)ccc23)cc1` [compound 9, N-(4-Tert-butylbenzyl)-N'-(7-chloroquinolin-4-yl)propane-1,3-diamine]: the “selectivity index (IC50), SI = ICtox/ICP.f. activity, D6” value in data set [2] was 45/100/68. Moreover, the “selectivity index (IC50), SI = ICtox/ICP.f. activity, W2” value in data set [3] is 45/100/68. Besides, in data set [4], the “selectivity index (IC50), SI = ICtox/ICP.f. activity, TM91C235” value is on record as 45/100/68.

As to `COc1ccc(CNCCNc2ccnc3cc(Cl)ccc23)cc1` [compound 10, N-(7-Chloroquinolin-4-yl)-N'-(4-methoxybenzyl)ethane-1,2-diamine], in data set [2], the “selectivity index (IC50), SI = ICtox/ICP.f. activity, D6” value was 406/1806/362. Further, the “selectivity index (IC50), SI = ICtox/ICP.f. activity, W2” value in data set [3] is recorded as 406/1806/362. Moreover, in data set [4], the “selectivity index (IC50), SI = ICtox/ICP.f. activity, TM91C235” value is given as 406/1806/362.

As to `COc1ccc(CNCCCNc2ccnc3cc(Cl)ccc23)cc1` [compound 11, N-(7-Chloroquinolin-4-yl)-N'-(4-methoxybenzyl)propane-1,3-diamine], in data set [2], the “selectivity index (IC50), SI = ICtox/ICP.f. activity, D6” value was 86/778/95 and the IC50 was below 9 nM. Moreover, the “selectivity index (IC50), SI = ICtox/ICP.f. activity, W2” value in data set [3] was 86/778/95. Also, the “selectivity index (IC50), SI = ICtox/ICP.f. activity, TM91C235” value in data set [4] is 86/778/95.

`Fc1ccc(CNCCNc2ccnc3cc(Cl)ccc23)cc1` [compound 12, N-(7-Chloroquinolin-4-yl)-N'-(4-fluorobenzyl)ethane-1,2-diamine]: the “selectivity index (IC50), SI = ICtox/ICP.f. activity, D6” value in data set [2] is 350/608/291. Moreover, in data set [3], the “selectivity index (IC50), SI = ICtox/ICP.f. activity, W2” value was 350/608/291. The “selectivity index (IC50), SI = ICtox/ICP.f. activity, TM91C235” value in data set [4] was 350/608/291.

In the case of `Fc1ccc(CNCCCNc2ccnc3cc(Cl)ccc23)cc1` [compound 13, N-(7-Chloroquinolin-4-yl)-N'-(4-fluorobenzyl)propane-1,3-diamine], the “selectivity index (IC50), SI = ICtox/ICP.f. activity, D6” value in data set [2] is 110/415/185. Also, in data set [3], the “selectivity index (IC50), SI = ICtox/ICP.f. activity, W2” value was 110/415/185. Further, in data set [4], the “selectivity index (IC50), SI = ICtox/ICP.f. activity, TM91C235” value was 110/415/185.

Consider `Clc1ccc2c(NCCNCc3ccc(Br)cc3)ccnc2c1` [compound 14, N-(4-Bromobenzyl)-N'-(7-chloroquinolin-4-yl)ethane-1,2-diamine], for which the “selectivity index (IC50), SI = ICtox/ICP.f. activity, D6” value in data set [2] is on record as 695/1606/660. Further, the half-life in data set [6] and in data set [7] was at least 1 h in each case. The “selectivity index (IC50), SI = ICtox/ICP.f. activity, W2” value in data set [3] is listed as 695/1606/660. For the same molecule, the “selectivity index (IC50), SI = ICtox/ICP.f. activity, TM91C235” value in data set [4] is on record as 695/1606/660.

Turning to `Clc1ccc2c(NCCCNCc3ccc(Br)cc3)ccnc2c1` [compound 15, N-(4-Bromobenzyl)-N'-(7-chloroquinolin-4-yl)propane-1,3-diamine], the half-life in data set [6] and in data set [7] was at least 1 h each time.

In the case of `Clc1ccc2c(NCCNCc3ccncc3)ccnc2c1` [compound 16, N-(7-Chloroquinolin-4-yl)-N'-(pyridin-4-ylmethyl)ethane-1,2-diamine], the “selectivity index (IC50), SI = ICtox/ICP.f. activity, D6” value in data set [2] is recorded as 409/2528/752. Also, the “selectivity index (IC50), SI = ICtox/ICP.f. activity, W2” value in data set [3] is 409/2528/752. The “selectivity index (IC50), SI = ICtox/ICP.f. activity, TM91C235” value in data set [4] is reported as 409/2528/752.

For the molecule `Clc1ccc2c(NCCCNCc3ccncc3)ccnc2c1` [compound 17, N-(7-Chloroquinolin-4-yl)-N'-(pyridin-4-ylmethyl)propane-1,3-diamine], in data set [2], the “selectivity index (IC50), SI = ICtox/ICP.f. activity, D6” value is given as 176/4146/469 and the IC50 was below 9 nM. Further, the “selectivity index (IC50), SI = ICtox/ICP.f. activity, W2” value in data set [3] was 176/4146/469. In addition, the “selectivity index (IC50), SI = ICtox/ICP.f. activity, TM91C235” value in data set [4] is listed as 176/4146/469.

Regarding `Clc1ccc2c(NCCNCc3cccnc3)ccnc2c1` [compound 18, N-(7-Chloroquinolin-4-yl)-N'-(pyridin-3-ylmethyl)ethane-1,2-diamine], the “selectivity index (IC50), SI = ICtox/ICP.f. activity, D6” value in data set [2] is recorded as 426/1796/882. Also, the “selectivity index (IC50), SI = ICtox/ICP.f. activity, W2” value in data set [3] is given as 426/1796/882. For the same molecule, the “selectivity index (IC50), SI = ICtox/ICP.f. activity, TM91C235” value in data set [4] is 426/1796/882.

Consider `Clc1ccc2c(NCCCNCc3cccnc3)ccnc2c1` [compound 19, N-(7-Chloroquinolin-4-yl)-N'-(pyridin-3-ylmethyl)propane-1,3-diamine], for which the half-life in data set [6] and in data set [7] was at least 1 h throughout. The “selectivity index (IC50), SI = ICtox/ICP.f. activity, W2” value in data set [3] is given as 90/ /317. For the same molecule, the “selectivity index (IC50), SI = ICtox/ICP.f. activity, TM91C235” value in data set [4] is recorded as 90/ /317.

With `Clc1ccc2c(NCCNCc3cnccc3Cl)ccnc2c1` [compound 20, N-[(4-Chloropyridin-3-yl)methyl]-N'-(7-chloroquinolin-4-yl)ethane-1,2-diamine], in data set [2], the “selectivity index (IC50), SI = ICtox/ICP.f. activity, D6” value was 46/102/78. Moreover, the “selectivity index (IC50), SI = ICtox/ICP.f. activity, W2” value in data set [3] is 46/102/78. Moreover, in data set [4], the “selectivity index (IC50), SI = ICtox/ICP.f. activity, TM91C235” value was 46/102/78.

In the case of `Clc1ccc2c(NCCCNCc3cnccc3Cl)ccnc2c1` [compound 21, N-[(4-Chloropyridin-3-yl)methyl]-N'-(7-chloroquinolin-4-yl)propane-1,3-diamine], the “selectivity index (IC50), SI = ICtox/ICP.f. activity, D6” value in data set [2] was 52/146/121. The “selectivity index (IC50), SI = ICtox/ICP.f. activity, W2” value in data set [3] is on record as 52/146/121. For the same molecule, the “selectivity index (IC50), SI = ICtox/ICP.f. activity, TM91C235” value in data set [4] is listed as 52/146/121.

For `COc1ccncc1CNCCNc1ccnc2cc(Cl)ccc12` [compound 22, N-(7-Chloroquinolin-4-yl)-N'-[(4-methoxypyridin-3-yl)methyl]ethane-1,2-diamine], the “selectivity index (IC50), SI = ICtox/ICP.f. activity, D6” value in data set [2] is listed as 435/4000/588. Moreover, in data set [3], the “selectivity index (IC50), SI = ICtox/ICP.f. activity, W2” value is listed as 435/4000/588. In addition, the “selectivity index (IC50), SI = ICtox/ICP.f. activity, TM91C235” value in data set [4] is 435/4000/588.

`COc1ccncc1CNCCCNc1ccnc2cc(Cl)ccc12` [compound 23, N-(7-Chloroquinolin-4-yl)-N'-[(4-methoxypyridin-3-yl)methyl]propane-1,3-diamine]: in data set [2], the “selectivity index (IC50), SI = ICtox/ICP.f. activity, D6” value was 57/1040/93 and the half-maximal inhibitory concentration (IC50) was below 9 nM. The same molecule registered a half-life in data set [6] of at least 1 h. Moreover, the “selectivity index (IC50), SI = ICtox/ICP.f. activity, W2” value in data set [3] is reported as 57/1040/93. Moreover, the “selectivity index (IC50), SI = ICtox/ICP.f. activity, TM91C235” value in data set [4] was 57/1040/93. The molecule also showed a half-life in data set [7] of at least 1 h.

The IC50 is the concentration at which inhibition is half-maximal. As a reminder, the IC90 is the concentration at which the effect reaches the 90% level. Broadly, the half-life is how long it takes for the measured level to halve.

Source of the values: article PMC3880596 (Journal of medicinal chemistry, 2013).
